In EPA's ToxValDB 9.5 (doi:10.2903/j.efsa.2010.1682):
Values after ≈ are worked out from the molar mass of the structure shown.

What was measured:
Cucumis sativus = conditions: not reported; seedling emergence
Bibionidae = conditions: chronic/long-term
Canidae = conditions: oral, Dog Other, organ weight
Typhlodromus pyri = conditions: not reported
Allium cepa = conditions: not reported; seedling emergence
Daphnia magna = conditions: chronic/long-term; duration: 21 days; reproduction
Apis mellifera = conditions: acute, duration: 72 hours, mortality

CCCCC(C#N)(Cn1cncn1)c1ccc(Cl)cc1 (centres undefined) [Myclobutanil]
LC50 (Oncorhynchus mykiss; acute, duration: 96 hours, mortality): 2 µg/mL (≈ 6.93 µM)
NOEC (Oncorhynchus mykiss; chronic/long-term, duration: 21 days, growth): 0.2 mg/L
NOEC (Anas platyrhynchos; reproductive): 31.6 mg/kg-day
LC50 (Anas platyrhynchos; short-term, oral, feed, mortality): > 1540 mg/kg-day
LEL (Cucumis sativus): 300 g/ha
LC50 (Colinus virginianus; acute, oral, diet, mortality): > 567 mg/kg-day
LD50 (Colinus virginianus; acute, oral, mortality): 510 mg/kg-day
NOEC (Colinus virginianus; reproduction developmental): 24.2 mg/kg-day
NOEC (Bibionidae): 6.07 mg/kg
NOEC (Bibionidae; duration: 30 days): 4.98 mg/L
LD50 (Rattus norvegicus; acute, oral, M, mortality): 1600 mg/kg-day
NOAEL (Rattus norvegicus; chronic, duration: 2 years, histopathology: nonneoplastic): 2.5 mg/kg-day
NOAEL (Rattus norvegicus; developmental, development): 31 mg/kg-day
NOEL (Rattus norvegicus; reproduction developmental, reproduction): 16 mg/kg-day
NOAEL (Canidae; chronic, duration: 1 years): 3.09 mg/kg-day
NOAEL (Canidae; subchronic, duration: 90 days): 3.09 mg/kg-day
LEL (Typhlodromus pyri; mortality): 36 g/ha
LEL (Typhlodromus pyri; reproduction): 36 g/ha
LEL (Allium cepa): 300 g/ha
NOEC (Daphnia magna): 1 mg/L
LC50 (Tagia sp.; acute, mortality): 250 mg/kg
NOEC (Tagia sp.; chronic/long-term): 10.3 mg/kg
LD50 (Apis mellifera; dermal): > 39.6 µg/piece
LD50 (Apis mellifera; oral, unspecified): > 33.9 µg/piece
